The text below walks through data of patent US9247759B2, “Identification of human T2R receptors that respond to bitter compounds that elicit the bitter taste in compositions, and the use thereof in assays to identify compounds that inhibit (block) bitter taste in compositions and use thereof” (SENOMYX, INC., priority 2007, dated 2016).

The structures appear in SMILES notation. Where two headings read alike, the source gives them in different places.

Test [1] deals with hT2R64 (Homo sapiens (Human), UniProt P59538). Kind of test: hT2R panel inhibition, transient HEK293 G16g44, agonist Aristolochic Acid 1 μM. It is filed as cell-based. To be noted: HEK293, compound at 25 μM. The protocol:
(§1) Specifically, in order to evaluate the inhibitory selectivity of the Compound C compound, this compound was tested against 22 human T2Rs which were deorphaned by Senomyx. These receptors and the bitter ligands that activate these human T2Rs are reported in earlier patent applications which are incorporated by reference herein. These 22 human T2Rs are hT2R1, 3, 4, 5, 7, 8, 9, 10, 13, 14, 16, 44, 51, 54, 55, 61, 63, 64, 65, 67, 71 and 75. The amino acid and nucleic acid sequences of all of these T2Rs may be found in these earlier patent applications. These human T2Rs were each individually transiently transfected into HEK293 cells that stably express the promiscuous G protein G16g44 and functional assays were effected using these receptors as disclosed in these same patent applications. […] The ligands were used at EC80 concentration levels. The list of bitter ligands utilized and the tested ligand concentrations are contained in Table 5 of this example.
(§2) Relating to the foregoing, FIG. 5 contains experimental results wherein Compound C was tested with different agonist compounds. The inhibition activity is represented by the reduction of receptor activity in the presence of Compound C. […] These 13 hT2Rs are hT2R3, 7, 10, 14, 16, 44, 51, 55, 61, 63, 64, 65, and 71.

For test [2], the target named is T1, hT2R14 (Homo sapiens (Human), UniProt Q9NYV8). Kind of test: hT2R panel inhibition, transient HEK293 G16g44, agonist Aristolochic Acid 2 μM. Format: cell-based. To be noted: HEK293, compound at 25 μM. The protocol: as §1
T1 sequence (Q9NYV8 whole entry): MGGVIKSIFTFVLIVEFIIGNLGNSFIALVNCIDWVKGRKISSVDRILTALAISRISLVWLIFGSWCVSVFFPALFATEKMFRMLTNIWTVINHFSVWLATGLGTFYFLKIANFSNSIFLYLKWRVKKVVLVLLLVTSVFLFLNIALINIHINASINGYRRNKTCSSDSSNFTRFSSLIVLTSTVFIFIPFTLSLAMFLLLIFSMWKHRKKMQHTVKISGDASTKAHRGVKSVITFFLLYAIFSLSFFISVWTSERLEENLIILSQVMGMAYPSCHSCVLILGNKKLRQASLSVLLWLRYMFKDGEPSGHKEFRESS
The test system of test [3] is hT2R63. Kind of test: hT2R panel inhibition, transient HEK293 G16g44, agonist Caffeine 1 mM or Andrographolide 100 μM. It is filed as cell-based, human. To be noted: compound at 25 μM; for screening result against bitter receptor 63: receptor activated to EC80 with the corresponding agonist. The protocol: as §1, §2
Test [4] concerns the target hT2R61 (Homo sapiens (Human), UniProt P59537). Kind of test: hT2R panel inhibition, transient HEK293 G16g44, agonist Aristolochic Acid 25 nM. To be noted: HEK293, compound at 25 μM. It is filed as cell-based. The protocol: as §1, §2
In test [5] the target is hT2R71 (Homo sapiens (Human), UniProt P59536). Kind of test: hT2R panel inhibition, transient HEK293 G16g44, agonist Picric Acid 10 μM. It is filed as cell-based. To be noted: HEK293, compound at 25 μM; receptor activated to EC80 with the corresponding agonist; read-out: screening result against bitter receptor 71. The procedure: as §1, §2
hT2R71, sequence (P59536 whole entry): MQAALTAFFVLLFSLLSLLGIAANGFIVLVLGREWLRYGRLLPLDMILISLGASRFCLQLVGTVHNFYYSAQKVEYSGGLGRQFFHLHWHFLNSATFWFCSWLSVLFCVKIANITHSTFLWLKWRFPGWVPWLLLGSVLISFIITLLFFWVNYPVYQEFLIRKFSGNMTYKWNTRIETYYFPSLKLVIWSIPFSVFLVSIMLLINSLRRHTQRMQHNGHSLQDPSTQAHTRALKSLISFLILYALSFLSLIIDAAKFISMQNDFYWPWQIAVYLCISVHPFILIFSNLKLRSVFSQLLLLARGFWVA
Test [6] deals with hT2R3 (Homo sapiens (Human), UniProt Q9NYW6). Kind of test: hT2R panel inhibition, transient HEK293 G16g44, agonist Chloroquine pH6.5 50 μM. It is filed as cell-based. To be noted: HEK293, compound at 25 μM; receptor activated to EC80 with the corresponding agonist; read-out: screening result against bitter receptor 3. The procedure:
as §1, §2

The test system of test [7] is hT2R44. Kind of test: hT2R panel inhibition, transient HEK293 G16g44, agonist Denatonium 0.5 μM. It is filed as cell-based, human. The note with it: compound at 25 μM; receptor activated to EC80 with the corresponding agonist. The protocol: as §1, §2
The target of test [8] is T1, hT2R14. Kind of test: hT2R14 antagonist high-throughput FLIPR assay, stable cell line with G16g44, agonist aristolochic acid. It is filed as cell-based. The protocol:
The inventors also used the automated fluorimetric […] system FLIPR using a slightly different protocol. A HEK293 cell line stably expressing G16gust44 was transfected with a hT2R expression plasmid, 24 hours later, the cells are loaded and analyzed on FLIPR.
After a ligand is identified for a particular hT2R, a HEK293 cell line stably expressing both the hT2R and G16gust44 are generated, facilitating future screening assays to identify other ligands that activate the particular hT2R or which modulate (block or enhance) the activation of this hT2R by another bitter ligand such as a bitter compound contained in coffee. This avoids the need for transient transfection.
To identify antagonists, cell lines stably expressing hT2R8 and hT2R14, respectively, together with the promiscuous chimeric G16g44 protein were generated as described in previous patent applications. A high-throughput assay was established using the stable cell lines and FLIPR (Fluorescent Imaging Plate Reader). An agonist of hT2R8 or hT2R14 was used to activate the receptors up to 70-80% of their respective maximal activity. For hT2R8, the agonist used was andrographolide (200 […]); for hT2R14, it was aristolochic acid (3 μM). To identify antagonists, compounds with diverse chemical structures were added together with the agonist.

Test [9] relates to hT2R55. Kind of test: hT2R panel inhibition, transient HEK293 G16g44, agonist Cinchonine 150 μM. Format: cell-based, human. To be noted: compound at 25 μM; receptor activated to EC80 with the corresponding agonist. The protocol:
as §1, §2

[10] abbreviates: receptor activated to EC80 with the corresponding agonist, read-out: screening result against bitter receptor 64.
The mark [11] stands for this setting: receptor activated to EC80 with agonist, read-out: inhibition of bitter receptor 14.
Setting [12] is: receptor activated to EC80 with the corresponding agonist, read-out: screening result against bitter receptor 61.
Setting [13] is: receptor activated to EC80 with the corresponding agonist, read-out: screening result against bitter receptor 14.

hT2R61, sequence (P59537 whole entry): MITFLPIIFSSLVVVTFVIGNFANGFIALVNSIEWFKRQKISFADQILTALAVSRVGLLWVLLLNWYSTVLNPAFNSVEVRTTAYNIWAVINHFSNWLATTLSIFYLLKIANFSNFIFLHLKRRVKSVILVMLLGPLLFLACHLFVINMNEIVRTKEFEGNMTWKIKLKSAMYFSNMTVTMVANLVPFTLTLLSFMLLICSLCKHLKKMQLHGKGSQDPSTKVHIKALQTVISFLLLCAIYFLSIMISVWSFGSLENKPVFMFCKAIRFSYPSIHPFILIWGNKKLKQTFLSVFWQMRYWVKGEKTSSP
hT2R3, sequence (Q9NYW6 whole entry): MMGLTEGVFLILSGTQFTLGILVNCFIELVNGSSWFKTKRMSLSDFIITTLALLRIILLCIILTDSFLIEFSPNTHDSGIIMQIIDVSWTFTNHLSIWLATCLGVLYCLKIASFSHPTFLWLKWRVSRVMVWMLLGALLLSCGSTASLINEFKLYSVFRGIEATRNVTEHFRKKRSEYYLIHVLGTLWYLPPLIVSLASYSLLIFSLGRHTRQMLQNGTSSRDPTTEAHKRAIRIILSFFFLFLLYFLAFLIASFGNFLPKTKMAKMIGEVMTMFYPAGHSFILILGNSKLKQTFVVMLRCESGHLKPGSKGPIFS
hT2R64, sequence (P59538 whole entry): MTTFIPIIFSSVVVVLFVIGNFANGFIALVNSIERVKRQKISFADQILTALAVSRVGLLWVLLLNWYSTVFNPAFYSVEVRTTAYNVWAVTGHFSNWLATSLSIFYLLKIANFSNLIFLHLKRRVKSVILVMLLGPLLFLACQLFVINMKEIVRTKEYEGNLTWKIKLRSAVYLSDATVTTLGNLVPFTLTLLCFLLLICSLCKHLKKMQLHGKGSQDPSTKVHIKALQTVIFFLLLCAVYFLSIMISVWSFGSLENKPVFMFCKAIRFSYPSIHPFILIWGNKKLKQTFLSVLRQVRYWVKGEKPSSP

For the molecule `COc1ccc(CN(Cc2ccccc2)S(=O)(=O)c2ccccc2C(=O)O)cc1` [Example 5-60, 2-(N-benzyl-N-(4-methoxybenzyl)sulfamoyl)benzoic acid], in test [1] (setting [10]), the inhibition at 25 µM is 20 to 40%.

`Cc1cccc(C)c1NS(=O)(=O)c1ccc2c(c1)c(=O)n(C)c(=O)n2C` [Example 6-8, N-(2,6-dimethylphenyl)-1,3-dimethyl-2,4-dioxo-1,2,3,4-tetrahydroquinazoline-6-sulfonamide]: in [2] (setting [11]), the inhibition at 25 µM was 20 to 40%.

`COc1ccc(CN(Cc2ccc(C(=O)O)cc2)S(=O)(=O)c2ccc(C(=O)O)cc2)cc1` [Example 5-38, 4-((4-carboxy-N-(4-methoxybenzyl)phenylsulfonamido)methyl)-benzoic acid]: the “screening result against bitter receptor 63” value in test [3] is “++++ (80% or greater inhibition = ++++)”. In addition, the inhibition at 25 µM in test [4] (setting [12]) was > 80%; in [1] (setting [10]), 20 to 40%; in test [5] it was 20 to 40%.

On to `COc1ccc(CN(Cc2ccccc2)S(=O)(=O)c2ccc(CC(=O)O)cc2)cc1` [Example 5-47, 2-(4-(N-benzyl-N-(4-methoxybenzyl)sulfamoyl)phenyl)acetic acid], for which, in [3], the “screening result against bitter receptor 63” value was “+ (20% to 40% inhibition = +)”. Also, the inhibition at 25 µM in [6] lay within 20 to 40%; in [4] (setting [12]), 60 to 80%; in test [5], 20 to 40%. For the same molecule, in test [7], the “screening result against bitter receptor 44” value is given as “+ (20% to 40% inhibition = +)”.

As a reminder, the IC50 is the concentration needed to halve the response being measured. For the molecule `N#C/C(=C\c1ccco1)C(=O)Nc1nnc(-c2ccccc2)s1` [Example 6-2, (E)-2-cyano-3-(furan-2-yl)-N-(5-phenyl-1,3,4-thiadiazol-2-yl)acrylamide], the “inhibition of bitter receptor 63” value in [3] (receptor activated to EC80 with agonist) is reported as “+ (20% to 40% inhibition = +)”. The inhibition at 25 µM was > 80% in test [2] (setting [11]); 40 to 60% in test [4] (receptor activated to EC80 with agonist, read-out: inhibition of bitter receptor 61); 20 to 40% in test [1] (receptor activated to EC80 with agonist, read-out: inhibition of bitter receptor 64). For the same molecule, in [8] (read-out: IC50 on hT2R14 bitter receptor), the IC50 came to 499 nM.

For the molecule `COc1ccc(CN(Cc2ccncc2)S(=O)(=O)c2ccc(C(=O)O)cc2)cc1` [Example 5-86, 4-(N-(4-methoxybenzyl)-N-(pyridin-4-ylmethyl)sulfamoyl)benzoic acid], the “screening result against bitter receptor 63” value in test [3] is recorded as “+++ (60% to 80% inhibition = +++)”. Further, the values for the inhibition at 25 µM in test [2] (setting [13]) and in test [4] (setting [12]) were 20 to 40% and 60 to 80%, respectively. Moreover, the “screening result against bitter receptor 44” value in test [7] is given as “+ (20% to 40% inhibition = +)”.

For the molecule `COc1ccc(CNS(=O)(=O)c2ccc(C(=O)O)cc2)cc1` [Example 5-56, 4-(N-(4-methoxybenzyl)sulfamoyl)benzoic acid], the inhibition at 25 µM in test [6] and in test [1] (setting [10]) was 20 to 40% each time.

Consider `O=C(O)c1ccc(CN(Cc2ccc(F)cc2)S(=O)(=O)c2ccc(O)cc2)cc1` [Example 5-107, 4-((N-(4-fluorobenzyl)-4-hydroxyphenylsulfonamido)methyl)benzoic acid], for which, in [3], the “screening result against bitter receptor 63” value is given as “+++ (60% to 80% inhibition = +++)”. The inhibition at 25 µM is 60 to 80% in test [2] (setting [13]), > 80% in test [4] (setting [12]), 60 to 80% in test [1] (setting [10]) and 20 to 40% in test [5]. Besides, the “screening result against bitter receptor 44” value in test [7] is on record as “+ (20% to 40% inhibition = +)”. Further, in test [9], the “screening result against bitter receptor 55” value is “+ (20% to 40% inhibition = +)”.

For `COc1ccc(CN(C)S(=O)(=O)c2ccc(C(=O)O)cc2)cc1` [Example 5-29, 4-(N-(4-methoxybenzyl)-N-methylsulfamoyl)benzoic acid], in [3], the “screening result against bitter receptor 63” value was “+++ (60% to 80% inhibition = +++)”. Also, the inhibition at 25 µM in [1] (setting [10]) is 40 to 60%.

Take `COc1ccc(CN(Cc2ccccc2)C(=O)c2ccc(C(=O)O)cc2)cc1` [Example 5-49, 4-(benzyl(4-methoxybenzyl)carbamoyl)benzoic acid]: the “screening result against bitter receptor 63” value in [3] is recorded as “+ (20% to 40% inhibition = +)”. The inhibition at 25 µM in test [6] lay within 20 to 40%; in test [4] (setting [12]), 60 to 80%; in test [1] (setting [10]), 40 to 60%; in test [5], 20 to 40%. Also, in test [7], the “screening result against bitter receptor 44” value is reported as “+ (20% to 40% inhibition = +)”. Moreover, the “screening result against bitter receptor 55” value in [9] is on record as “++++ (80% or greater inhibition = ++++)”.

Turning to `COc1ccc2c(c1)CCN(S(=O)(=O)c1ccc(C(=O)O)cc1)C2c1ccccc1` (stereo not drawn) [Example 5-162, 4-(6-methoxy-1-phenyl-3,4-dihydroisoquinolin-2(1H)-ylsulfonyl)benzoic acid], in test [8] (Table C, read-out: hT2R14 IC50), the IC50 worked out at 9620 nM.

Turning to `COc1ccc(CN(Cc2cccc(C(=O)O)c2)S(=O)(=O)c2ccc(C(=O)O)cc2)cc1` [Example 5-82, 3-((4-carboxy-N-(4-methoxybenzyl)phenylsulfonamido)methyl) benzoic acid], in test [3], the “screening result against bitter receptor 63” value is given as “++++ (80% or greater inhibition = ++++)”. For the same molecule, the inhibition at 25 µM is > 80% in [4] (setting [12]), 20 to 40% in [1] (setting [10]) and 20 to 40% in test [5].

Regarding `CCN(C)C(=O)CSc1nc(C)nc2c1c(=O)n(C)c(=O)n2C` [Example 6-22, N-ethyl-N-methyl-2-(2,6,8-trimethyl-5,7-dioxo-5,6,7,8-tetrahydropyrimido[4,5-d]pyrimidin-4-ylthio)acetamide], the half-maximal inhibitory concentration (IC50) in test [8] (Table D, read-out: hT2R14 IC50) came out at 861 nM.

`COc1ccc(CN(Cc2cccc(C)c2)S(=O)(=O)c2ccc(C(=O)O)cc2)cc1` [Example 5-65, 4-(N-(4-methoxybenzyl)-N-(3-methylbenzyl)sulfamoyl)benzoic acid]: the inhibition at 25 µM in test [6] was in the range of 20 to 40%.

`N#Cc1ccc(CN(Cc2ccccc2)S(=O)(=O)c2ccc(C(=O)O)cc2)cc1` [Example 5-146, 4-(N-benzyl-N-(4-cyanobenzyl)sulfamoyl)benzoic acid]: in test [8] (Table C, read-out: hT2R14 IC50), the IC50 turned out to be 1850 nM.

`Cn1c(=O)c2c(SCC(=O)NCc3ccccc3)ccnc2n(C)c1=O` [Example 6-29, N-benzyl-2-(1,3-dimethyl-2,4-dioxo-1,2,3,4-tetrahydropyrido[2,3-d]pyrimidin-5-ylthio)acetamide]: the IC50 in test [8] (Table D, read-out: hT2R14 IC50) is 710 nM.

On to `COc1ccc(CN(Cc2ccccc2)C(=O)Nc2ccc(C(=O)O)cc2)cc1` [Example 5-94, 4-(3-benzyl-3-(4-methoxybenzyl)ureido)benzoic acid], for which the inhibition at 25 µM in [6] was in the range of 20 to 40%; in test [4] (setting [12]) it was 20 to 40%; in test [1] (setting [10]) it was 60 to 80%; in [5], 20 to 40%. Further, in test [7], the “screening result against bitter receptor 44” value is recorded as “++ (40% to 60% inhibition = ++)”.

`Cn1c(=O)c2c(SCC(=O)N3CCCCCC3)ccnc2n(C)c1=O` [Example 6-28, 5-(2-(azepan-1-yl)-2-oxoethylthio)-1,3-dimethylpyrido[2,3-d]pyrimidine-2,4(1H,3H)-dione]: the half-inhibitory concentration (IC50) in [8] (Table D, read-out: hT2R14 IC50) came out at 2380 nM.

As for `Cc1ccc(S(=O)(=O)N(Cc2ccc(C#N)cc2)CC2CCC(C(=O)O)CC2)cc1` (stereo not drawn) [Example 5-127, 4-((N-(4-cyanobenzyl)-4-methylphenylsulfonamido)methyl) cyclohexanecarboxylic acid], in test [8] (Table C, read-out: hT2R14 IC50), the half-maximal inhibitory concentration (IC50) stood at 499 nM.
